According to paper PMC9571063 (Molecules, 2022):

Experiments:
DCAMKL3 = target: T1, DCAMKL3 (Homo sapiens, UniProt Q9C098); assay: KINOMEscan; type: binding; conditions: read-out: Percent Control
T1 construct: purchased Eurofins DiscoverX KINOMEscan (scanMAX 468)

[1] = target: T2, RPS6KA5(Kin.Dom.1-N-terminal) (Homo sapiens, UniProt O75582); assay: KINOMEscan; type: binding; conditions: read-out: Percent Control
T2 construct: RPS6KA5(Kin.Dom.1-N-terminal); purchased Eurofins DiscoverX KINOMEscan (scanMAX 468)

ASK1 = target: T3, ASK1 (Homo sapiens, UniProt Q99683); assay: KINOMEscan; type: binding; conditions: read-out: Percent Control
T3 construct: purchased Eurofins DiscoverX KINOMEscan (scanMAX 468)

PAK7 = target: T4, PAK7 (Homo sapiens, UniProt Q9P286); assay: KINOMEscan; type: binding; conditions: read-out: Percent Control
T4 construct: purchased Eurofins DiscoverX KINOMEscan (scanMAX 468)

CDKL5 = target: T5, CDKL5 (Homo sapiens, UniProt O76039); assay: KINOMEscan; type: binding; conditions: read-out: Percent Control
T5 construct: purchased Eurofins DiscoverX KINOMEscan (scanMAX 468)

GRK2 = target: T6, GRK2 (Homo sapiens, UniProt P25098); assay: KINOMEscan; type: binding; conditions: read-out: Percent Control
T6 construct: purchased Eurofins DiscoverX KINOMEscan (scanMAX 468)

LYN = target: T7, LYN (Homo sapiens, UniProt P07948); assay: KINOMEscan; type: binding; conditions: read-out: Percent Control
T7 construct: purchased Eurofins DiscoverX KINOMEscan (scanMAX 468)

MAP3K2 = target: T8, MAP3K2 (Homo sapiens, UniProt Q9Y2U5); assay: KINOMEscan; type: binding; conditions: read-out: Percent Control
T8 construct: purchased Eurofins DiscoverX KINOMEscan (scanMAX 468)

PFPK5(P.falciparum) = target: T9, PFPK5(P.falciparum) (Plasmodium falciparum, UniProt P61075); assay: KINOMEscan; type: binding; conditions: read-out: Percent Control
T9 construct: purchased Eurofins DiscoverX KINOMEscan (scanMAX 468)

KIT(A829P) = target: T10, KIT(A829P) (Homo sapiens, UniProt P10721, A829P); assay: KINOMEscan; type: binding; conditions: read-out: Percent Control
T10 construct: purchased Eurofins DiscoverX KINOMEscan (scanMAX 468)

PDPK1 = target: T11, PDPK1 (Homo sapiens, UniProt O15530); assay: KINOMEscan; type: binding; conditions: read-out: Percent Control
T11 construct: purchased Eurofins DiscoverX KINOMEscan (scanMAX 468)

TLK1 = target: T12, TLK1 (Homo sapiens, UniProt Q9UKI8); assay: KINOMEscan; type: binding; conditions: read-out: Percent Control
T12 construct: purchased Eurofins DiscoverX KINOMEscan (scanMAX 468)

p38-beta = target: T13, p38-beta (Homo sapiens, UniProt Q15759); assay: KINOMEscan; type: binding; conditions: read-out: Percent Control
T13 construct: purchased Eurofins DiscoverX KINOMEscan (scanMAX 468)

ALK = target: T14, ALK (Homo sapiens, UniProt Q9UM73); assay: KINOMEscan; type: binding; conditions: read-out: Percent Control
T14 construct: purchased Eurofins DiscoverX KINOMEscan (scanMAX 468)

RIOK2 = target: T15, RIOK2 (Homo sapiens, UniProt Q9BVS4); assay: KINOMEscan; type: binding; conditions: read-out: Percent Control
T15 construct: purchased Eurofins DiscoverX KINOMEscan (scanMAX 468)

PIK3CD = target: T16, PIK3CD (Homo sapiens, UniProt O00329); assay: KINOMEscan; type: binding; conditions: read-out: Percent Control
T16 construct: purchased Eurofins DiscoverX KINOMEscan (scanMAX 468)

RET(V804M) = target: T17, RET(V804M) (Homo sapiens, UniProt P07949, V804M); assay: KINOMEscan; type: binding; conditions: read-out: Percent Control
T17 construct: purchased Eurofins DiscoverX KINOMEscan (scanMAX 468)

SBK1 = target: T18, SBK1 (Homo sapiens, UniProt Q52WX2); assay: KINOMEscan; type: binding; conditions: read-out: Percent Control
T18 construct: purchased Eurofins DiscoverX KINOMEscan (scanMAX 468)

SIK2 = target: T19, SIK2 (Homo sapiens, UniProt Q9H0K1); assay: KINOMEscan; type: binding; conditions: read-out: Percent Control
T19 construct: purchased Eurofins DiscoverX KINOMEscan (scanMAX 468)

MYLK = target: T20, MYLK (Homo sapiens, UniProt Q15746); assay: KINOMEscan; type: binding; conditions: read-out: Percent Control
T20 construct: purchased Eurofins DiscoverX KINOMEscan (scanMAX 468)

DMPK = target: T21, DMPK (Homo sapiens, UniProt Q09013); assay: KINOMEscan; type: binding; conditions: read-out: Percent Control
T21 construct: purchased Eurofins DiscoverX KINOMEscan (scanMAX 468)

NEK10 = target: T22, NEK10 (Homo sapiens, UniProt Q6ZWH5); assay: KINOMEscan; type: binding; conditions: read-out: Percent Control
T22 construct: purchased Eurofins DiscoverX KINOMEscan (scanMAX 468)

FLT3(ITD) = assay: KINOMEscan; type: binding, human; conditions: 1 μM
LATS1 = target: T23, LATS1 (Homo sapiens, UniProt O95835); assay: KINOMEscan; type: binding; conditions: read-out: Percent Control
T23 construct: purchased Eurofins DiscoverX KINOMEscan (scanMAX 468)

FAK = target: T24, FAK (Homo sapiens, UniProt Q05397); assay: KINOMEscan; type: binding; conditions: read-out: Percent Control
T24 construct: purchased Eurofins DiscoverX KINOMEscan (scanMAX 468)

ALK(C1156Y) = target: T25, ALK(C1156Y) (Homo sapiens, UniProt Q9UM73, C1156Y); assay: KINOMEscan; type: binding; conditions: read-out: Percent Control
T25 construct: purchased Eurofins DiscoverX KINOMEscan (scanMAX 468)

[2] = target: T26, ABL1(F317L)-phosphorylated (Homo sapiens, UniProt P00519, F317L); assay: KINOMEscan; type: binding; conditions: read-out: Percent Control
T26 construct: purchased Eurofins DiscoverX KINOMEscan (scanMAX 468)

LIMK1 = target: T27, LIMK1 (Homo sapiens, UniProt P53667); assay: KINOMEscan; type: binding; conditions: read-out: Percent Control
T27 construct: purchased Eurofins DiscoverX KINOMEscan (scanMAX 468)

GRK1 = target: T28, GRK1 (Homo sapiens, UniProt Q15835); assay: KINOMEscan; type: binding; conditions: read-out: Percent Control
T28 construct: purchased Eurofins DiscoverX KINOMEscan (scanMAX 468)

MAP4K4 = target: T29, MAP4K4 (Homo sapiens, UniProt O95819); assay: KINOMEscan; type: binding; conditions: read-out: Percent Control
T29 construct: purchased Eurofins DiscoverX KINOMEscan (scanMAX 468)

MAK = target: T30, MAK (Homo sapiens, UniProt P20794); assay: KINOMEscan; type: binding; conditions: read-out: Percent Control
T30 construct: purchased Eurofins DiscoverX KINOMEscan (scanMAX 468)

CIT = target: T31, CIT (Homo sapiens, UniProt O14578); assay: KINOMEscan; type: binding; conditions: read-out: Percent Control
T31 construct: purchased Eurofins DiscoverX KINOMEscan (scanMAX 468)

MUSK = target: T32, MUSK (Homo sapiens, UniProt O15146); assay: KINOMEscan; type: binding; conditions: read-out: Percent Control
T32 construct: purchased Eurofins DiscoverX KINOMEscan (scanMAX 468)

PAK1 = target: T33, PAK1 (Homo sapiens, UniProt Q13153); assay: KINOMEscan; type: binding; conditions: read-out: Percent Control
T33 construct: purchased Eurofins DiscoverX KINOMEscan (scanMAX 468)

CDC2L2 = target: T34, CDC2L2 (Homo sapiens, UniProt Q9UQ88); assay: KINOMEscan; type: binding; conditions: read-out: Percent Control
T34 construct: purchased Eurofins DiscoverX KINOMEscan (scanMAX 468)

NEK3 = target: T35, NEK3 (Homo sapiens, UniProt P51956); assay: KINOMEscan; type: binding; conditions: read-out: Percent Control
T35 construct: purchased Eurofins DiscoverX KINOMEscan (scanMAX 468)

AURKA = target: T36, AURKA (Homo sapiens, UniProt O14965); assay: KINOMEscan; type: binding; conditions: read-out: Percent Control
T36 construct: purchased Eurofins DiscoverX KINOMEscan (scanMAX 468)

MDA-MB-231 = test system: MDA-MB-231; design: method as in ref 14 (a number printed in a supplementary file, which may have a reference list of its own: not looked up in the article's list); conditions: DB18[a], footnote not given; read-out: Cytotoxic studies IC50 MDA-MB-231; cited from earlier work
[3] = target: T37, RSK3(Kin.Dom.2-C-terminal) (Homo sapiens, UniProt Q15349); assay: KINOMEscan; type: binding; conditions: read-out: Percent Control
T37 construct: RSK3(Kin.Dom.2-C-terminal); purchased Eurofins DiscoverX KINOMEscan (scanMAX 468)

STK33 = target: T38, STK33 (Homo sapiens, UniProt Q9BYT3); assay: KINOMEscan; type: binding; conditions: read-out: Percent Control
T38 construct: purchased Eurofins DiscoverX KINOMEscan (scanMAX 468)

PCTK2 = target: T39, PCTK2 (Homo sapiens, UniProt Q00537); assay: KINOMEscan; type: binding; conditions: read-out: Percent Control
T39 construct: purchased Eurofins DiscoverX KINOMEscan (scanMAX 468)

ITK = target: T40, ITK (Homo sapiens, UniProt Q08881); assay: KINOMEscan; type: binding; conditions: read-out: Percent Control
T40 construct: purchased Eurofins DiscoverX KINOMEscan (scanMAX 468)

T23 sequence (O95835 whole entry): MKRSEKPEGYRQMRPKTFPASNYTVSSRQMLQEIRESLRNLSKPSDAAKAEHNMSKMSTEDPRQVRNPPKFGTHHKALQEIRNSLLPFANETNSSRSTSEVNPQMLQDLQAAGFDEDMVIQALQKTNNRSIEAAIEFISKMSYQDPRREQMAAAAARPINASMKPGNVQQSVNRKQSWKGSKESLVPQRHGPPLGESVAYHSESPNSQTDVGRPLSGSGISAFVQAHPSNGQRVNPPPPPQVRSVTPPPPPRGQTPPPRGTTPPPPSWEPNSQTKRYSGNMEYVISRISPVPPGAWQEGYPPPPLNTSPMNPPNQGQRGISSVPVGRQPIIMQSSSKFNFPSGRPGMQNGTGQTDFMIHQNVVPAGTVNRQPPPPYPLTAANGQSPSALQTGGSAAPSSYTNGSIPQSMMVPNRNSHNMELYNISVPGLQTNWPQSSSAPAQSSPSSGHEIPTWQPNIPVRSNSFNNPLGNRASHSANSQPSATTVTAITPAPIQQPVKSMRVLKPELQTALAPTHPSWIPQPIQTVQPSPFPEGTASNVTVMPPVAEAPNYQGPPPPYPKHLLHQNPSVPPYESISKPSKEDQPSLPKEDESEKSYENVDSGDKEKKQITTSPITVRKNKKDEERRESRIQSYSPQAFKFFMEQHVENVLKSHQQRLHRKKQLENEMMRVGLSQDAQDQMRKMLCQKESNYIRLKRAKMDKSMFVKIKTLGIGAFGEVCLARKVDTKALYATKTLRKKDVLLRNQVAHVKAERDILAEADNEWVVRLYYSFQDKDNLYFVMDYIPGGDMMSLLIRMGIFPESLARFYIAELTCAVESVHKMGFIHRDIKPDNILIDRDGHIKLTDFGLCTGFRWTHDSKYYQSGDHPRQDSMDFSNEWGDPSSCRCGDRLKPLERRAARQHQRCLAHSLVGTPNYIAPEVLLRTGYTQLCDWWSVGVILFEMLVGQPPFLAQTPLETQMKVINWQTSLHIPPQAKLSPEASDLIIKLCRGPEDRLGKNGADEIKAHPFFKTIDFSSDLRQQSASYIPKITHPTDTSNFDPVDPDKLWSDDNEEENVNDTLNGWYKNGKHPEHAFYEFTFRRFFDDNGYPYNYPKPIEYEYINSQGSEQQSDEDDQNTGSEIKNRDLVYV
T27 sequence (P53667 whole entry): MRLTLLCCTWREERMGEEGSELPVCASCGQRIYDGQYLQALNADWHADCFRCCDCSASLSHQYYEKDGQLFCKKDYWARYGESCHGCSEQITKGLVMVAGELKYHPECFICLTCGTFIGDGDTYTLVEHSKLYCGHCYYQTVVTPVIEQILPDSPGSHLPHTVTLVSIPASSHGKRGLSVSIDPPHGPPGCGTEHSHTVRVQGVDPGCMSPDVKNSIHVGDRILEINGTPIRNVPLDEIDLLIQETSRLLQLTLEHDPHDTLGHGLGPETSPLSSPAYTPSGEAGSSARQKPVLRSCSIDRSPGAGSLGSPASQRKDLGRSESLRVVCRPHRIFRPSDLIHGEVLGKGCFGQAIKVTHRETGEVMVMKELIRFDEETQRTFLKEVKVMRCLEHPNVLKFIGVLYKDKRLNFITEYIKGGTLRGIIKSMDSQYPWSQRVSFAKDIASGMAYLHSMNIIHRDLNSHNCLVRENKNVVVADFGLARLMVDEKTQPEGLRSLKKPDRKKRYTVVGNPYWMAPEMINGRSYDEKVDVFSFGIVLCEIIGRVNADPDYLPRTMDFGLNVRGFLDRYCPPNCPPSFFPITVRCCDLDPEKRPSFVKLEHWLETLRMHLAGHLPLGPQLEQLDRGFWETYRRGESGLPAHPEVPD
T18 sequence (Q52WX2 whole entry): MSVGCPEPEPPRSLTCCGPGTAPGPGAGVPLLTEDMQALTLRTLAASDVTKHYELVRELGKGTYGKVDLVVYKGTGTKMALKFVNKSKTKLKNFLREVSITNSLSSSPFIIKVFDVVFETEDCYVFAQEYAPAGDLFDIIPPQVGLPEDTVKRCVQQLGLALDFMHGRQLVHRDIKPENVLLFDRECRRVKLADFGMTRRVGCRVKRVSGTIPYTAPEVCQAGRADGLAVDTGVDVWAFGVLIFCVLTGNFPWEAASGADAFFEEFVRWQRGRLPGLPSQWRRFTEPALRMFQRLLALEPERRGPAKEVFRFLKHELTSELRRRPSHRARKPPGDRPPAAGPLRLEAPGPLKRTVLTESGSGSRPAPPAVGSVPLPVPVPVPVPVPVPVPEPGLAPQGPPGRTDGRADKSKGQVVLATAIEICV
T14 sequence (Q9UM73 19-1620): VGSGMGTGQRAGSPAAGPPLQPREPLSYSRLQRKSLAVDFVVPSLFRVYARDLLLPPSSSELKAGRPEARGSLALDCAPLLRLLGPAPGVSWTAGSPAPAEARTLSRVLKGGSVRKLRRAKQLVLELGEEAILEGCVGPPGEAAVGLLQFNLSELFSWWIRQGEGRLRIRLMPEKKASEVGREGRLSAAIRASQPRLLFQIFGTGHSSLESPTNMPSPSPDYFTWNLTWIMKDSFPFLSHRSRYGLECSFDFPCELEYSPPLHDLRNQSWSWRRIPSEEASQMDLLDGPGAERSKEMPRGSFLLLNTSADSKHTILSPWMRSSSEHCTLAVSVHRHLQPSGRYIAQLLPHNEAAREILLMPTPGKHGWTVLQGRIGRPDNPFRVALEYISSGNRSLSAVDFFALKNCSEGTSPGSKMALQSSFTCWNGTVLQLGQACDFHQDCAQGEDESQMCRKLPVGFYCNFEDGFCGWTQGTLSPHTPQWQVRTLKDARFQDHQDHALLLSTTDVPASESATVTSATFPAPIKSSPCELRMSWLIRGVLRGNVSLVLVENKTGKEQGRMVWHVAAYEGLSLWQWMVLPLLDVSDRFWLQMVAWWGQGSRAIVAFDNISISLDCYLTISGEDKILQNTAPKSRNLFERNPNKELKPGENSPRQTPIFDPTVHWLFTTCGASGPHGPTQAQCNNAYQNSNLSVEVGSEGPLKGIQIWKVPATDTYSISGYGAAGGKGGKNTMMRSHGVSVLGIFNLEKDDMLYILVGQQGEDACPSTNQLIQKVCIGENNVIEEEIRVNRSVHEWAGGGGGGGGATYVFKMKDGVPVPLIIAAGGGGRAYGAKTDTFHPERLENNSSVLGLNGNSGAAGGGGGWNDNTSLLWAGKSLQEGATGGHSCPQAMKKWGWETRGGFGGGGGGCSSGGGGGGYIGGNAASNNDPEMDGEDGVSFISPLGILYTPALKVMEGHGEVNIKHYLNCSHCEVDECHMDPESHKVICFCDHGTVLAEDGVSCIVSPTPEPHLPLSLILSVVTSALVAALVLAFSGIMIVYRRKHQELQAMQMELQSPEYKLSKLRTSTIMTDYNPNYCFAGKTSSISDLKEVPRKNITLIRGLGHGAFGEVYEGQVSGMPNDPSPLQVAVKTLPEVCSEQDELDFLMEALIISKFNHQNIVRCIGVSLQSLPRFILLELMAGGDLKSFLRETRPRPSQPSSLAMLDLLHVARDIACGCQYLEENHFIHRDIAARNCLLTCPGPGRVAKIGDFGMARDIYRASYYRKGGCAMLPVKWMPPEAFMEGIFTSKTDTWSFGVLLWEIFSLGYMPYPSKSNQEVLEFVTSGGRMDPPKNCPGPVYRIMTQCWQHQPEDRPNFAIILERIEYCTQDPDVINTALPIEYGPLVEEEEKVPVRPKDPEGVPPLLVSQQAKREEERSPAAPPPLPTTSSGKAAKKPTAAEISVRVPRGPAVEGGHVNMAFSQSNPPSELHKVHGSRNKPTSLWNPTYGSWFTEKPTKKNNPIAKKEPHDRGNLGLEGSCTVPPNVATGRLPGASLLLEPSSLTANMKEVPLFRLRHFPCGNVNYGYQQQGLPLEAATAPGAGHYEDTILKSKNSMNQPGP
T39 sequence (Q00537 whole entry): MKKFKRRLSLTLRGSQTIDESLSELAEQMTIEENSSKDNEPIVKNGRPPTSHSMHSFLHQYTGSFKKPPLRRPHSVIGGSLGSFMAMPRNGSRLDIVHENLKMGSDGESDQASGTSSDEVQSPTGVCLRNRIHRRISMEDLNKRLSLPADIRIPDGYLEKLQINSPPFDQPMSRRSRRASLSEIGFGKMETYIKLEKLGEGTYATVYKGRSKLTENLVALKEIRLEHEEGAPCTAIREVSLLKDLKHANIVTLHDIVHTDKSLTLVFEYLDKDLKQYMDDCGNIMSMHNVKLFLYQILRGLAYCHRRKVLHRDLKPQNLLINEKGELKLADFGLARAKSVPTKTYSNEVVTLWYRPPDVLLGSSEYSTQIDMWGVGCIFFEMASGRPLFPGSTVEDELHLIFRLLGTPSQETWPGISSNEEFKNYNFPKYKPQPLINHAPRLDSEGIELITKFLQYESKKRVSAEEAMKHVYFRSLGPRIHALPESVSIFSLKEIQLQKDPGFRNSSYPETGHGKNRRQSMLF
T12 sequence (Q9UKI8 whole entry): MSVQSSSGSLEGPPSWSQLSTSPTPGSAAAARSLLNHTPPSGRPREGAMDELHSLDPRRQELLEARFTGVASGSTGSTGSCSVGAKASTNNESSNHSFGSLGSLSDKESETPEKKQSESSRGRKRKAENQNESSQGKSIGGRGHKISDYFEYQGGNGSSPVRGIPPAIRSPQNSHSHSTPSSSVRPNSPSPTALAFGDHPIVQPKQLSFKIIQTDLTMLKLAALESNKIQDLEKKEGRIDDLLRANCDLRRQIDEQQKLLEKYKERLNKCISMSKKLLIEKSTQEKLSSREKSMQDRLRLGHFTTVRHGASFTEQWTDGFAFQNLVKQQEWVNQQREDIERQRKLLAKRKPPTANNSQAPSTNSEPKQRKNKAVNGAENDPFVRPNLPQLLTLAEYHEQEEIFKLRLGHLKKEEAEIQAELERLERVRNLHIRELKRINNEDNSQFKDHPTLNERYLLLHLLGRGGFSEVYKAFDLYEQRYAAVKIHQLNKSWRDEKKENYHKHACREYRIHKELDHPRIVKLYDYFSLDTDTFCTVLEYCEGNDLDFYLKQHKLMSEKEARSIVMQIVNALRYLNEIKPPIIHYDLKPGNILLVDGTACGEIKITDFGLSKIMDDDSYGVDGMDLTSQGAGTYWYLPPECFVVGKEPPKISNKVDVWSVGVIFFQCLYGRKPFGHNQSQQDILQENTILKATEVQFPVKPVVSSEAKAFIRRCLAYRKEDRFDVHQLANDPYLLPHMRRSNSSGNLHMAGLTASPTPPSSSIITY

Cc1ccc(-n2cc(COc3cccc4cnc(Nc5cccc(Cl)c5)nc34)nn2)c([N+](=O)[O-])c1 [DB18]
> 25 µM: IC50 (MDA-MB-231)
98%: remaining binding at 1 µM (PCTK2)
100%: remaining binding at 1 µM (DCAMKL3) | remaining binding at 1 µM [1] | remaining binding at 1 µM (ASK1) | remaining binding at 1 µM (CDKL5) | remaining binding at 1 µM (PFPK5(P.falciparum)) | remaining binding at 1 µM (KIT(A829P)) | remaining binding at 1 µM (TLK1) | remaining binding at 1 µM (p38-beta) | remaining binding at 1 µM (ALK) | remaining binding at 1 µM (RIOK2) | remaining binding at 1 µM (PIK3CD) | remaining binding at 1 µM (SBK1) | remaining binding at 1 µM (SIK2) | remaining binding at 1 µM (DMPK) | remaining binding at 1 µM (NEK10) | remaining binding at 1 µM (FAK) | remaining binding at 1 µM [2] | remaining binding at 1 µM (LIMK1) | remaining binding at 1 µM (MAP4K4) | remaining binding at 1 µM (MAK) | remaining binding at 1 µM (CIT) | remaining binding at 1 µM (MUSK) | remaining binding at 1 µM (PAK1) | remaining binding at 1 µM (CDC2L2) | remaining binding at 1 µM (AURKA) | remaining binding at 1 µM [3] | remaining binding at 1 µM (STK33) | remaining binding at 1 µM (ITK)
99%: remaining binding at 1 µM (LATS1) | remaining binding at 1 µM (ALK(C1156Y))
92%: remaining binding at 1 µM (PAK7) | remaining binding at 1 µM (PDPK1) | remaining binding at 1 µM (MYLK)
62 % Ctrl: Percent Control (FLT3(ITD))
97%: remaining binding at 1 µM (MAP3K2) | remaining binding at 1 µM (GRK1)
94%: remaining binding at 1 µM (GRK2)
96%: remaining binding at 1 µM (RET(V804M))
93%: remaining binding at 1 µM (LYN)
83%: remaining binding at 1 µM (NEK3)
